Measured values taken from patent US8258134B2, “Pyridazinone glucokinase activators” (Hoffmann-La Roche Inc., priority 2008, dated 2012).

Biological target: T1, Recombinant human liver GK1 (GST-GK) (Homo sapiens, UniProt P35557)
T1 construct: made in house; host or cells: E. coli
T1 sequence (P35557 1-466 isoform P35557-2): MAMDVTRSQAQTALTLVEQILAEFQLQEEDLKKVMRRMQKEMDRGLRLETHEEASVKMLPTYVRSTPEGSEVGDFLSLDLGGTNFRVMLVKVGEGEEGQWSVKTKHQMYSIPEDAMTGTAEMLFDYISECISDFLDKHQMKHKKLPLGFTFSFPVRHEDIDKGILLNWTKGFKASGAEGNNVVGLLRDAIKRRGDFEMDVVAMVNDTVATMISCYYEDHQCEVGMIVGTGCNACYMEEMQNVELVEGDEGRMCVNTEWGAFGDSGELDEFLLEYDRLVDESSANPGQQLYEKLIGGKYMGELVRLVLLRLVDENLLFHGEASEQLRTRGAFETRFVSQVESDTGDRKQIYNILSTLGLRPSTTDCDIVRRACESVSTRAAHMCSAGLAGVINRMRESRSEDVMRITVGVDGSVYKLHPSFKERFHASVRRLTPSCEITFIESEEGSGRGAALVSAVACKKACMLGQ
Assay: Glucokinase in vitro assay (G6PDH-coupled NADH generation, OD340)
Assay type: biochemical
Details: 5 mM D-glucose; for fold activation @ 30 uM: 30 uM test compound; for SC1.5 average (concentration of activator that produced a 50% increase in the activity of GK): 30° C., pH 7.1, 10% DMSO
Method: Glucokinase In Vitro Assay Protocol: Glucokinase (GK) was assayed by coupling the production of glucose-6-phosphate to the generation of NADH with glucose-6-phosphate dehydrogenase (G6PDH, 0.75-1 k units/mg; Boehringer Mannheim, Indianapolis, Ind.) from Leuconostoc mesenteroides as the coupling enzyme (Scheme 2):
Recombinant human liver GK1 was expressed in E. coli as a glutathione S-transferase fusion protein (GST-GK) [Liang et al, 1995] and was purified by chromatography over a glutathione-Sepharose 4B affinity column using the procedure provided by the manufacturer (Amersham Pharmacia Biotech, Piscataway, N.J.).
The assay was conducted at 30° C. in a flat bottom 96-well tissue culture plate from Costar (Cambridge, Mass.) with a final incubation volume of 120 μL. The incubation reaction contained the following: 25 mM Hepes buffer (pH 7.1), 25 mM KCl, 5 mM D-glucose, 1 mM ATP, 1.8 mM NAD, 2 mM MgCl2, 1 μM sorbitol-6-phosphate, 1 mM dithiothreitol, test drug or 10% DMSO, ˜7 units/ml G6PDH, and GK (see below). All organic reagents were >98% pure and were from Boehringer Mannheim with the exceptions of D-glucose and Hepes which were from Sigma Chemical Co, St Louis, Mo. Test compounds were dissolved in DMSO and were added to the incubation reaction minus GST-GK in a volume of 12 μL to yield a final DMSO concentration of 10%. This mix was pre-incubated in the temperature controlled chamber of a SPECTRAmax 250 microplate spectrophotometer (Molecular Devices Corporation, Sunnyvale, Calif.) for 10 minutes to allow temperature equilibrium and then the reaction was started by the addition of 20 μL GST-GK.
After addition of enzyme, the increase in optical density (OD) at 340 nm was monitored spectrophotometrically to determine the rate of change (OD340 per min). The GK activity (OD340/min) in control wells (10% DMSO minus GK activators) was compared with the activity in wells containing test GK activators, and the concentration of activator that produced a 50% increase in the activity of GK, i.e., the SC1.5, was calculated. The table below provides the in vitro glucokinase activity for the compounds in the Examples: […]

fold activation @ 30 uM	SC1.5 average (concentration of activator that produced a 50% increase in the activity of GK)	SMILES
	1.566 µM	CC(C)(O)Cn1ccc(NC(=O)[C@H](CC2CCCC2)n2ncc(Oc3ccccc3S(C)(=O)=O)cc2=O)n1 [Example 30A, (S)-3-Cyclopentyl-N-[1-(2-hydroxy-2-methyl-propyl)-1H-pyrazol-3-yl]-2-[4-(2-methanesulfonyl-phenoxy)-6-oxo-6H-pyridazin-1-yl]-propionamide]
1.16 fold	> 30 µM	CC(C)(O)Cn1ccc(NC(=O)[C@@H](CC2CCCC2)n2ncc(Oc3ccccc3S(C)(=O)=O)cc2=O)n1 [Example 30B, (R)-3-Cyclopentyl-N-[1-(2-hydroxy-2-methyl-propyl)-1H-pyrazol-3-yl]-2-[4-(2-methanesulfonyl-phenoxy)-6-oxo-6H-pyridazin-1-yl]-propionamide]
	0.18 µM	CC(C)(O)Cn1ccc(NC(=O)[C@H](CC2CCCC2)n2ncc(Oc3cccc(F)c3F)cc2=O)n1 [Example 31A, (S)-3-Cyclopentyl-2-[4-(2,3-difluoro-phenoxy)-6-oxo-6H-pyridazin-1-yl]-N-[1-(2-hydroxy-2-methyl-propyl)-1H-pyrazol-3-yl]-propionamide]
	15.901 µM	CC(C)(O)Cn1ccc(NC(=O)[C@@H](CC2CCCC2)n2ncc(Oc3cccc(F)c3F)cc2=O)n1 [Example 31B, (R)-3-Cyclopentyl-2-[4-(2,3-difluoro-phenoxy)-6-oxo-6H-pyridazin-1-yl]-N-[1-(2-hydroxy-2-methyl-propyl)-1H-pyrazol-3-yl]-propionamide]
	0.502 µM	CC(C)(O)Cn1ccc(NC(=O)[C@H](CC2CCCC2)n2ncc(Oc3ccc(F)cc3F)cc2=O)n1 [Example 32A, (S)-3-Cyclopentyl-2-[4-(2,4-difluoro-phenoxy)-6-oxo-6H-pyridazin-1-yl]-N-[1-(2-hydroxy-2-methyl-propyl)-1H-pyrazol-3-yl]-propionamide]

The next lines start with the compound.

SMILES	fold activation @ 30 uM	SC1.5 average (concentration of activator that produced a 50% increase in the activity of GK)
CC(C)(O)Cn1ccc(NC(=O)[C@@H](CC2CCCC2)n2ncc(Oc3ccccc3C3CCCC3)cc2=O)n1 [Example 22B, (R)-3-Cyclopentyl-2-[4-(2-cyclopentyl-phenoxy)-6-oxo-6H-pyridazin-1-yl]-N-[1-(2-hydroxy-2-methyl-propyl)-1H-pyrazol-3-yl]-propionamide]	1.22 fold	> 30 µM
CC(C)(O)Cn1ccc(NC(=O)C(CC2CCCC2)n2ncc(Oc3ccccc3-c3ccccc3)cc2=O)n1 (stereo not shown) [Example 23, 2-[4-(Biphenyl-2-yloxy)-6-oxo-6H-pyridazin-1-yl]-3-cyclopentyl-N-[1-(2-hydroxy-2-methyl-propyl)-1H-pyrazol-3-yl]-propionamide]		0.868 µM
Cc1ccccc1Oc1cnn([C@@H](CC2CCCC2)C(=O)Nc2ccn(CC(C)(C)O)n2)c(=O)c1 [Example 24A, (S)-3-Cyclopentyl-N-[1-(2-hydroxy-2-methyl-propyl)-1H-pyrazol-3-yl]-2-(6-oxo-4-o-tolyloxy-6H-pyridazin-1-yl)-propionamide]		0.1 µM
Cc1ccccc1Oc1cnn([C@H](CC2CCCC2)C(=O)Nc2ccn(CC(C)(C)O)n2)c(=O)c1 [Example 24B, (R)-3-Cyclopentyl-N-[1-(2-hydroxy-2-methyl-propyl)-1H-pyrazol-3-yl]-2-(6-oxo-4-o-tolyloxy-6H-pyridazin-1-yl)-propionamide]		5.88 µM
Cc1ncccc1Oc1cnn(C(CC2CCCC2)C(=O)Nc2ccn(CC(C)(C)O)n2)c(=O)c1 (stereo not shown) [Example 25, 3-Cyclopentyl-N-[1-(2-hydroxy-2-methyl-propyl)-1H-pyrazol-3-yl]-2-[4-(2-methyl-pyridin-3-yloxy)-6-oxo-6H-pyridazin-1-yl]-propionamide]		1.773 µM
CC(C)(O)Cn1ccc(NC(=O)C(CC2CCCC2)n2ncc(Oc3ccccc3N3CCCC3)cc2=O)n1 (stereo not shown) [Example 26, 3-Cyclopentyl-N-[1-(2-hydroxy-2-methyl-propyl)-1H-pyrazol-3-yl]-2-[6-oxo-4-(2-pyrrolidin-1-yl-phenoxy)-6H-pyridazin-1-yl]-propionamide]		0.196 µM
CC(C)(O)Cn1ccc(NC(=O)[C@H](CC2CCCC2)n2ncc(Oc3ccccc3N3CCCC3)cc2=O)n1 [Example 26A, (S)-3-Cyclopentyl-N-[1-(2-hydroxy-2-methyl-propyl)-1H-pyrazol-3-yl]-2-[6-oxo-4-(2-pyrrolidin-1-yl-phenoxy)-6H-pyridazin-1-yl]-propionamide]		0.102 µM
CC(C)(O)Cn1ccc(NC(=O)[C@@H](CC2CCCC2)n2ncc(Oc3ccccc3N3CCCC3)cc2=O)n1 [Example 26B, (R)-3-Cyclopentyl-N-[1-(2-hydroxy-2-methyl-propyl)-1H-pyrazol-3-yl]-2-[6-oxo-4-(2-pyrrolidin-1-yl-phenoxy)-6H-pyridazin-1-yl]-propionamide]		26.027 µM
CC(C)(O)Cn1ccc(NC(=O)C(CC2CCCC2)n2ncc(Oc3ccccc3N3CCCCC3)cc2=O)n1 (stereo not shown) [Example 27, 3-Cyclopentyl-N-[1-(2-hydroxy-2-methyl-propyl)-1H-pyrazol-3-yl]-2-[6-oxo-4-(2-piperidin-1-yl-phenoxy)-6H-pyridazin-1-yl]-propionamide]		2.385 µM
CC(C)(O)Cn1ccc(NC(=O)C(CC2CCCC2)n2ncc(Oc3cccnc3)cc2=O)n1 (stereo not shown) [Example 28, 3-Cyclopentyl-N-[1-(2-hydroxy-2-methyl-propyl)-1H-pyrazol-3-yl]-2-[6-oxo-4-(pyridin-3-yloxy)-6H-pyridazin-1-yl]-propionamide]		1.925 µM
CC(C)(O)Cn1ccc(NC(=O)[C@H](CC2CCCC2)n2ncc(Oc3ccccc3C#N)cc2=O)n1 [Example 29A, (S)-2-[4-(2-Cyano-phenoxy)-6-oxo-6H-pyridazin-1-yl]-3-cyclopentyl-N-[1-(2-hydroxy-2-methyl-propyl)-1H-pyrazol-3-yl]-propionamide]		0.159 µM
CC(C)(O)Cn1ccc(NC(=O)[C@@H](CC2CCCC2)n2ncc(Oc3ccccc3C#N)cc2=O)n1 [Example 29B, (R)-2-[4-(2-Cyano-phenoxy)-6-oxo-6H-pyridazin-1-yl]-3-cyclopentyl-N-[1-(2-hydroxy-2-methyl-propyl)-1H-pyrazol-3-yl]-propionamide]		11.185 µM
CC(C)(O)Cn1ccc(NC(=O)C(CC2CCCC2)n2ncc(Oc3ccccc3S(C)(=O)=O)cc2=O)n1 (stereo not shown) [Example 30, 3-Cyclopentyl-N-[1-(2-hydroxy-2-methyl-propyl)-1H-pyrazol-3-yl]-2-[4-(2-methanesulfonyl-phenoxy)-6-oxo-6H-pyridazin-1-yl]-propionamide]		2.975 µM
CC(C)(O)Cn1ccc(NC(=O)C(CC2CCCC2)n2ncc(Oc3cccc(F)c3F)cc2=O)n1 (stereo not shown) [Example 31, 3-Cyclopentyl-2-[4-(2,3-difluoro-phenoxy)-6-oxo-6H-pyridazin-1-yl]-N-[1-(2-hydroxy-2-methyl-propyl)-1H-pyrazol-3-yl]-propionamide]		0.209 µM
CC(C)(O)Cn1ccc(NC(=O)C(CC2CCCC2)n2ncc(Oc3ccc(F)cc3F)cc2=O)n1 (stereo not shown) [Example 32, 3-Cyclopentyl-2-[4-(2,4-difluoro-phenoxy)-6-oxo-6H-pyridazin-1-yl]-N-[1-(2-hydroxy-2-methyl-propyl)-1H-pyrazol-3-yl]-propionamide]		0.745 µM
